Source: patent US11427586B2, “1,2,4-oxadiazole derivatives as liver X receptor agonists” (NOVARTIS AG, priority 2019, dated 2022)
Where two headings read alike, the source gives them in different places.

Legend:
SZ95 sebocytes = assay: Sentinel Lipid Assay (SLA), desaturation index in SZ95 sebocytes; assay type: cell-based; conditions: Homo sapiens, 72 h; for EC50: desaturation index, lowest dose used 4.6 nM, read-out: SLA EC50
Experimental: Sentinel Lipid Assay (SLA)
The sentinel lipid assay was used quantify the change in the global desaturation index in SZ95 sebocytes upon administration of certain LXR agonist compounds provided herein. The assay measures a smaller subset of lipid analytes in meibum (termed “sentinel lipids”) which would model the global changes the population of both saturated and desaturated lipids in the cells. In order to define this smaller subset of lipids, a complete lipid profile was recorded on dose response curves (eight levels from 4 nM to 10 uM) of Compounds 1-72. An elastic net regression model was applied separately to both the saturated and desaturated lipids to determine the minimum combination of coefficients and analytes, which could be used to adequately model the total population of lipids. The elastic net model was able to reduce the behavior of 425 lipids to 11 lipids and the correlation between the desaturation indices observed using the complete set of lipids with from the 11 sentinel lipids was 0.96.
A medium throughput assay was created using this reduced set of sentinel lipids. A single batch is defined as triplicate examples of three unique plates (i.e., a single batch of cells is used to create nine plates for LC-MSMS analysis). Lipids were extracted from the cells using a 1:1 mixture of methylene chloride/methanol containing 10 nM of deuterated standards of triglycerides, which are used as internal standards for quantitating the lipid abundance. The lipids were separated prior to mass spectrometric analysis using a five minute HPLC gradient. The abundance of the sentinel lipids and the internal standards are measured using multiple reaction monitor mode (MRM) on a triple quadrupole mass spectrometer. The data was transformed from total ion current to nmoles/10^6 cells, which are multiplied by the coefficients from the elastic net model to determine the effective desaturated and saturated content, and therein the desaturation index of the dosed cells. In order to compare compounds from multiple batches with one another, the measure raw desaturation index was normalized by dividing it by the desaturation index of the DMSO dosed cells, and all data was assessed as the fraction by which the compound increases the desaturation index above 1.
SZ95 (immortalized human sebaceous gland cells) cells were seeded in Greiner bio-one 96-well polypropylene plates that were pre-treated with 50 μg/mL Human Plasma Fibronectin (Thermo Fisher Scientific) at a density of 10^4 cells/135 μl. Cells were incubated in a humidified incubator with 5% CO2 at 37° C. overnight. Test compounds were diluted at a ratio of 1:3 and added to cells at final concentrations starting from 10 μM. 2-(3-(3-((2-chloro-3-(trifluoromethyl)benzyl)(2,2-diphenylethyl)amino)propoxy)phenyl)acetic acid was used as a positive control reference compound in each plate. Cells in the assay plate were incubated in a humidified incubator with 5% CO2 at 37° C. for 72 h.
Culture medium was removed from the cells and cells in culture plates were washed with ice cold phosphate buffered saline three times. Plates were heat sealed and stored in a −80° C. freezer prior to Sentinel lipid assay. The Amax value refers to the percent EC50 of the tested compound compared to a reference compound, 2-(3-(3-((2-chloro-3-(trifluoromethyl)benzyl)(2,2-diphenylethyl)amino)propoxy)phenyl)acetic acid.

SCD1 = assay: Measurement of SCD1 expression in SZ95-SCD1-HiBit cells (HiBiT assay); assay type: cell-based; conditions: Homo sapiens, 48 h; for EC50: SCD1 protein production, luminescence, initial dilution 1:3 in DMSO, read-out: HiBit EC50
Source text: Measurement of SCD1 Expression in SZ95-SCD1-HiBit Cells
SCD1 expression levels in SZ95 cells were quantitated using the HiBiT system (Promega) in which a small peptide sequence (SmBiT) with a larger protein (LgBiT) reconstitutes luciferase activity and can generate a luminescent signal used for quantitation. SZ95-SCD1-HiBit cells were generated by editing the SCD1 gene of SZ95 cells resulting in the addition of an 8 amino acid linker sequence (gssggssg, SEQ ID NO:1) followed by an 11-amino acid SmBiT sequence (vsgwrlfkkis, SEQ ID NO:2) at the carboxy-terminus of the SCD1 protein. The gRNA targeting sequence used was […] (SEQ ID NO: 3) and the SCD1 insertion oligonucleotide encoding the SmBiT sequence was:
SZ95-SCD1-HiBit cells were seeded in 384-well cell culture white plates at a density of 3000 cells/30 μl. Water was added to edge wells to avoid evaporation. Cells were incubated in a humidified incubator with 5% CO2 at 37° C. overnight. Tested compounds were diluted at a ratio of 1:3 in DMSO using an Agilent BRAVO Automated Liquid Handling Platform and, after further serial dilutions, added to cells at final concentrations starting from 18 μM. 2-(3-(3-((2-chloro-3-(trifluoromethyl)benzyl)(2,2-diphenylethyl)amino)propoxy)phenyl)acetic acid was used as a reference compound in each plate. Cells in the assay plate were incubated in a humidified incubator with 5% CO2 at 37° C. for 48 h.
The assay plates were removed from the incubator and allowed to equilibrate to room temperature. Nano-Glo® HiBiT Detection Reagent (Promega; a mixture of Nano-Glo HiBiT Detection Buffer, Nano-Glo HiBiT Detection Substrate, and LgBiT protein, according to the manufacturer's instructions) was added into assay plates, at a volume equal to cell culture medium in each well. Plates were placed on an orbital shaker at a speed of 300-600 rpm for 10 min at room temperature, and read on an EnVision Plate Reader using luminescence detection with a 1 second read time.
The assay measures the increase in SCD1 protein production in vitro. Amax refers to the percent EC50 of the tested compound compared to a reference compound, 2-(3-(3-((2-chloro-3-(trifluoromethyl)benzyl)(2,2-diphenylethyl)amino)propoxy)phenyl)acetic acid.

[1] = normalized Amax based on the reference compound Amax of 100%, read-out: SLA Normalized Amax
[2] = SZ95 cells, compared to reference compound, read-out: SLA Amax
[3] = normalized Amax based on the reference compound Amax of 100%, read-out: HiBit Normalized Amax
[4] = SZ95-SCD1-HiBit cells, compared to reference compound, read-out: HiBit Amax

| EC50 (SZ95 sebocytes; SZ95 cells) | EC50 (SCD1; SZ95-SCD1-HiBit cells) | SMILES | Emax (SZ95 sebocytes; [1]) | Emax (SZ95 sebocytes; [2]) | Emax (SCD1; [3]) | Emax (SCD1; [4]) |
| --- | --- | --- | --- | --- | --- | --- |
| ≤ 4.6 nM | 0.041 nM | CS(=O)(=O)c1ccccc1Oc1ccc(-c2noc(CN3C(=O)N(CCC4CCOCC4)C4(CCN(C5CCC5)CC4)C3=O)n2)cc1C(F)(F)F [Compound 17, 8-cyclobutyl-3-((3-(4-(2-(methylsulfonyl)phenoxy)-3-(trifluoromethyl)phenyl)-1,2,4-oxadiazol-5-yl)methyl)-1-(2-(tetrahydro-2H-pyran-4-yl)ethyl)-1,3,8-triazaspiro[4.5]decane-2,4-dione] | 102% | 97.4% | 200% | 190% |
| ≤ 4.6 nM | 0.133 nM | O=C1N(Cc2nc(-c3ccc(Oc4ccccc4S(=O)(=O)CC4CCCO4)c(C(F)(F)F)c3)no2)C(=O)C2(CCN(C3CCC3)CC2)N1CCN1CCOCC1 (stereo not drawn) [Compound 18, 8-cyclobutyl-1-(2-morpholinoethyl)-3-((3-(4-(2-(((tetrahydrofuran-2-yl)methyl)sulfonyl)phenoxy)-3-(trifluoromethyl)phenyl)-1,2,4-oxadiazol-5-yl)methyl)-1,3,8-triazaspiro[4.5]decane-2,4-dione] | 141% | 135% | 139% | 132% |
| ≤ 4.6 nM | 0.042 nM | O=C1N(Cc2nc(-c3ccc(Oc4ccccc4S(=O)(=O)CC4CCCO4)c(C(F)(F)F)c3)no2)C(=O)C2(CCN(C3CCC3)CC2)N1CCC1CCOCC1 (stereo not drawn) [Compound 19, 8-cyclobutyl-1-(2-(tetrahydro-2H-pyran-4-yl)ethyl)-3-((3-(4-(2-(((tetrahydrofuran-2-yl)methyl)sulfonyl)phenoxy)-3-(trifluoromethyl)phenyl)-1,2,4-oxadiazol-5-yl)methyl)-1,3,8-triazaspiro[4.5]decane-2,4-dione] | 146% | 140% | 194% | 184% |
| ≤ 4.6 nM | 0.078 nM | CC(C)CS(=O)(=O)c1ccccc1Oc1ccc(-c2noc(CN3C(=O)N(CCN4CCOCC4)C4(CCN(Cc5ccc(O)cc5)CC4)C3=O)n2)cc1C(F)(F)F [Compound 20, 8-(4-hydroxybenzyl)-3-((3-(4-(2-(isobutylsulfonyl)phenoxy)-3-(trifluoromethyl)phenyl)-1,2,4-oxadiazol-5-yl)methyl)-1-(2-morpholinoethyl)-1,3,8-triazaspiro[4.5]decane-2,4-dione] | 155% | 149% | 93.7% | 89.1% |
| ≤ 4.6 nM | 0.241 nM | CC(C)CS(=O)(=O)c1ccccc1Oc1ccc(-c2noc(CN3C(=O)N(CCN4CCOCC4)C4(CCN(Cc5cc(O)cc(O)c5)CC4)C3=O)n2)cc1C(F)(F)F [Compound 21, 8-(3,5-dihydroxybenzyl)-3-((3-(4-(2-(isobutylsulfonyl)phenoxy)-3-(trifluoromethyl)phenyl)-1,2,4-oxadiazol-5-yl)methyl)-1-(2-morpholinoethyl)-1,3,8-triazaspiro[4.5]decane-2,4-dione] | 102% | 97.5% | 83.7% | 79.6% |
| ≤ 4.6 nM | 1.83 nM | CC(C)CS(=O)(=O)c1ccccc1Oc1ccc(-c2noc(CN3C(=O)N(CCN4CCOCC4)C4(CCN(C5CCN(C)CC5)CC4)C3=O)n2)cc1C(F)(F)F [Compound 22, 3-((3-(4-(2-(isobutylsulfonyl)phenoxy)-3-(trifluoromethyl)phenyl)-1,2,4-oxadiazol-5-yl)methyl)-8-(1-methylpiperidin-4-yl)-1-(2-morpholinoethyl)-1,3,8-triazaspiro[4.5]decane-2,4-dione] | 160% | 154% | 135% | 129% |
